What all share (format): functional
The subject of assay [1] is Mycobacterium tuberculosis variant bovis. Nature of the assay: Antibacterial activity against Mycobacterium bovis BCG assessed bacterial growth inhibition by Alamar Blue cell viability assay.
The test system is the same in assay [2]. Nature of the assay: Antibacterial activity against Mycobacterium bovis BCG transfected with pVV16 vector assessed bacterial growth inhibition by Alamar Blue cell viability assay.
For assay [3] the test system is unchanged. Briefly: Antibacterial activity against Mycobacterium bovis BCG transfected with pVV16 vector expressing Rv0636 assessed bacterial growth inhibition by Alamar Blue cell viability assay. For orientation: The colour change of resazurin is a common sign of viable cells or microbes.

Our source for the MIC99 values is ChEMBL document CHEMBL5365456, “Isolation and biological activity of natural chalcones based on antibacterial mechanism classification” (Bioorg Med Chem, 2023).

SMILES strings stand for the structures. Values after ≈ are worked out from the molar mass of the structure shown.

One may read the MIC99 as an inhibitory concentration at the 99% level, which refers to growth in some studies and to a panel of isolates in others.

With `O=C(/C=C/c1ccc(O)cc1)c1ccc(O)cc1O` [ISOLIQUIRITIGENIN], the MIC99 in assay [1] amounted to 50 µg/mL (≈ 195 µM); in assay [2] it was 50 µg/mL (≈ 195 µM); in assay [3], 64 µg/mL (≈ 250 µM).
Turning to `O=C(/C=C/c1ccc(O)c(O)c1)c1ccc(O)cc1O` [BUTEIN], the MIC99 in assay [1] worked out at 47 µg/mL (≈ 173 µM); in assay [2], 43 µg/mL (≈ 158 µM); in assay [3], 59 µg/mL (≈ 217 µM).
